Results taken from publication PMC6941952, “A homogeneous bioluminescent immunoassay to probe cellular signaling pathway regulation” (Communications Biology, 2020).
Several values for one entry are separate records, joined by “and”; a condition that tells them apart may be missing. Equal values may be shown once.

System: total IκBα
Assay: NanoBiT cell-based immunoassay, total IκBα in human breast tumor epithelial cells
Settings: for IkB degradation (% compared to no IKK16), Average / IkB degradation (% compared to no IKK16) / Non-Treated/Treated / Raw data / Subtract reagent background: Breast tumor cells, TNF; for IkB degradation (% compared to no IKK16), Average: average of replicates; for IkB degradation (% compared to no IKK16) / Non-Treated/Treated / Raw data / Subtract reagent background: single replicates; for Total IkB Average / Total IkB Raw data / Total IkB Subtract reagent background: Breast Tumor Cells; for Total IkB Average: background subtracted; for Total IkB Raw data / Total IkB Subtract reagent background: listed as TNF
Protocol: All cell lines used are from ATCC. […] Human Primary Mammary Epithelial Cells (#H-6035), Human Breast Tumor Epithelial Cells (#HC-6035), Complete Human Epithelial Cell Medium (#H6621), and Gelatin-Based Coating Solution (#H6950) were purchased from Cell Biologics. The cells were cultured according to the manufacturer’s procedure. All cells were grown at 37 °C in a 5% CO2 humidified incubator and passaged before reaching 80% cell confluency. Prior to each experiment, cells were counted by combining 30 µl of cell suspension with 30 µl of trypan blue. After gentle pipetting up and down to mix the cells and the dye, the cell number was determined using Bio-Rad TC 20 cell counter.
Prior to NanoBiT Cell-Based Immunoassay, 50,000 cells were seeded in 160 µl of complete growth media per well of a 96-well plate and incubated overnight. The cells were checked under microscope and it was determined that 50,000 cells per well in 96-well plate is under 90% confluency for all cells tested. If necessary, the cell culture media were replaced with serum-free media after the cells were stably adherent on the plate and incubated overnight. To treat cells with activators or inhibitors, medium was changed to 30 µl of medium containing inhibitors. If activation of a specific pathway is needed, the cells were stimulated with 10 µl of medium containing activators. To lyse the cells, 10 µl of lysis buffer containing 0.1% digitonin diluted in 1X immunoassay buffer with protease and phosphatase inhibitors was added and the plates were mixed vigorously for 20 min. Then, 50 µl of an antibody mix containing two primary antibodies against the target protein and NanoBiT detecting antibodies (0.3 µl each per well), diluted in 1X immunoassay buffer was added to the lysates. The plates were incubated at 23 °C for 90 min, followed by the addition of 25 µl of Nano-Glo® reagent consisting of Nano-Glo® Luciferase Assay Substrate mixed with 1X immunoassay buffer. Luminescence was measured using a plate-reading luminometer.
Single dose or dose response inhibitor treatments were performed prior to activation of the pathways as follows. For IκBα, the cells were treated in 30 µl medium with IKK16 or MG132 for 60 min before the addition of 10 µl of DMEM containing appropriate concentration of TNFα. To measure phosphorylation of AKT or STAT3, the corresponding NanoBiT immunoassays were developed with MCF-7 or A431 cells, respectively, according the same scheme used to develop the IκBα assay using the primary antibodies for AKT and STAT3 described in the reagents section. For the AKT assay, MCF-7 cells were incubated overnight in phenol-red free DMEM medium (Gibco #21063-029) without serum. Treatment with LY294002 was performed in 30 µl medium and cells were incubated for 60 min before the addition of 1 µM Insulin. To measure STAT3 phosphorylation, A431 cells were incubated overnight in DMEM medium without serum. […] After addition of the stimulators, the cells were incubated for additional times as follows. IκBα phosphorylation and degradation analyses required both time courses and single time points as described in figures. […] The NanoBiT immunoassay protocol was followed as described above.
All 96-well assay plates were read using a GloMax® 96 Microplate Luminometer from Promega. The instrument was set to 0.5 s integration time. In order to obtain net change of signal, the reagent background values (signal from the well containing all reagent except primary antibodies) were subtracted from the sample values. To plot and analyze the data, Microsoft Excel and GraphPad Prism® Software were used. IC50 values were determined by using a nonlinear regression fit to a sigmoidal dose response (variable slope).

## O=C(c1ccc(Nc2nccc(-c3cc4ccccc4s3)n2)cc1)N1CCC(N2CCCC2)CC1 [IKK16]
IKK16 0.000762939 uM
  IkB degradation (% compared to no IKK16), Average: 97.6%
  IkB degradation (% compared to no IKK16): 92% and 104% and 97%
  Non-Treated/Treated: 3.423 and 4.061 and 3.878
  Raw data: 10940 and 10560 and 10750
  Subtract reagent background: 5493 and 5113 and 5303
IKK16 0.00305176 uM
  IkB degradation (% compared to no IKK16), Average: 98.3%
  IkB degradation (% compared to no IKK16): 97% and 96% and 102%
  Non-Treated/Treated: 3.600 and 3.739 and 4.102
  Raw data: 10670 and 11000 and 10460
  Subtract reagent background: 5223 and 5553 and 5013
IKK16 0.012207 uM
  IkB degradation (% compared to no IKK16), Average: 95.1%
  IkB degradation (% compared to no IKK16): 98% and 99% and 88%
  Non-Treated/Treated: 3.656 and 3.857 and 3.531
  Raw data: 10590 and 10830 and 11270
  Subtract reagent background: 5143 and 5383 and 5823
IKK16 0.0488281 uM
  IkB degradation (% compared to no IKK16), Average: 99.5%
  IkB degradation (% compared to no IKK16): 95% and 97% and 106%
  Non-Treated/Treated: 3.552 and 3.780 and 4.255
  Raw data: 10740 and 10940 and 10280
  Subtract reagent background: 5293 and 5493 and 4833
IKK16 0.195312 uM
  IkB degradation (% compared to no IKK16), Average: 94.6%
  IkB degradation (% compared to no IKK16): 95% and 102% and 87%
  Non-Treated/Treated: 3.532 and 3.953 and 3.507
  Raw data: 10770 and 10700 and 11310
  Subtract reagent background: 5323 and 5253 and 5863
IKK16 0.78125 uM
  IkB degradation (% compared to no IKK16), Average: 86.9%
  IkB degradation (% compared to no IKK16): 77% and 92% and 91%
  Non-Treated/Treated: 2.883 and 3.584 and 3.657
  Raw data: 11970 and 11240 and 11070
  Subtract reagent background: 6523 and 5793 and 5623
IKK16 3.125 uM
  IkB degradation (% compared to no IKK16), Average: 49.5%
  IkB degradation (% compared to no IKK16): 48% and 52% and 49%
  Non-Treated/Treated: 1.799 and 2.002 and 1.952
  Raw data: 15900 and 15820 and 15980
  Subtract reagent background: 10453 and 10373 and 10533
Human primary breast tumor epithelial cells, pretreated 1 h, then TNFα 50 ng per ml 30 min, read-out: IC50, inhibition of TNFα induced degradation of IκBα
  IC50: 1820 nM

## TNFα
TNF 2 min
  Total IkB Average: 21090
  Total IkB Raw data: 27000 and 28670 and 28950
  Total IkB Subtract reagent background: 21553 and 21833 and 19883
TNF 4 min
  Total IkB Average: 18310
  Total IkB Raw data: 25000 and 25490 and 25790
  Total IkB Subtract reagent background: 18373 and 18673 and 17883
TNF 6 min
  Total IkB Average: 13990
  Total IkB Raw data: 22120 and 20820 and 20380
  Total IkB Subtract reagent background: 13703 and 13263 and 15003
TNF 8 min
  Total IkB Average: 8950
  Total IkB Raw data: 16890 and 15660 and 15650
  Total IkB Subtract reagent background: 8543 and 8533 and 9773
TNF 10 min
  Total IkB Average: 6003
  Total IkB Raw data: 13590 and 12910 and 12860
  Total IkB Subtract reagent background: 5793 and 5743 and 6473
TNF 12 min
  Total IkB Average: 3767
  Total IkB Raw data: 11390 and 10770 and 10490
  Total IkB Subtract reagent background: 3653 and 3373 and 4273
TNF 15 min
  Total IkB Average: 2118
  Total IkB Raw data: 9632 and 9015 and 9057
  Total IkB Subtract reagent background: 1898 and 1940 and 2515
TNF 30 min
  Total IkB Average: 1696
  Total IkB Raw data: 8893 and 8691 and 8853
  Total IkB Subtract reagent background: 1574 and 1736 and 1776
TNF 45 min
  Total IkB Average: 4853
  Total IkB Raw data: 11970 and 11880 and 12060
  Total IkB Subtract reagent background: 4763 and 4943 and 4853
TNF 60 min
  Total IkB Average: 8867
  Total IkB Raw data: 15500 and 15850 and 16600
  Total IkB Subtract reagent background: 8733 and 9483 and 8383
